Data published in PMC11547375, “Peptide Dimerization as a Strategy for the Development of Antileishmanial Compounds” (Molecules, 2024).
Like-named read-outs stand apart in the source and are kept apart here. No end group written: not given here.

Assays:
[1] = system: L. mexicana promastigotes; experiment: microbe, parasite or virus in culture; assay type: cell-based, Leishmania mexicana; details: ± standard deviation, SD, read-out: IC50 Promastigote
Experimental: (§1) The L. amazonensis promastigotes (MPRO/BR/1972/M1841-LV-79) were grown in LIT culture medium, while the L. mexicana promastigotes (MNYC/BZ/62/M379) were cultivated in Schneider’s medium (Sigma-Aldrich, St. Louis, MO, USA), supplemented with 10% heat-inactivated fetal bovine serum (FBS; Gibco/Invitrogen, Waltham, MA, USA) at 28 °C until reaching the mid-log phase of growth. Macrophages were sourced from the peritoneal cavity of Swiss mice using the methodology outlined by de Almeida et al.. Anti-promastigote and anti-amastigote assays of L. mexicana and L. amazonensis and their cytotoxic activity were conducted as previously described. IC50 is the concentration capable of killing 50% of the parasites. The drug concentration that inhibited 50% of cell growth was denoted as the 50% cytotoxic concentration (CC50). Cytotoxicity for the host cells and the protozoan species was compared and expressed as the selectivity index (SI), calculated as the ratio of the CC50 for macrophages to the IC50 for the protozoan species.

L. mexicana amastigotes = experiment: microbe, parasite or virus in culture; assay type: cell-based, Leishmania mexicana; details: ± standard deviation, SD
Experimental: (§2) Macrophages were sourced from the peritoneal cavity of Swiss mice using the methodology outlined by de Almeida et al.. Anti-promastigote and anti-amastigote assays of L. mexicana and L. amazonensis and their cytotoxic activity were conducted as previously described. […] Cytotoxicity for the host cells and the protozoan species was compared and expressed as the selectivity index (SI), calculated as the ratio of the CC50 for macrophages to the IC50 for the protozoan species.

peritoneal macrophages = experiment: Cytotoxicity in peritoneal macrophages; assay type: cell-based; details: peritoneal macrophages of Swiss mice
Experimental: as §1

[2] = system: L. amazonensis promastigotes; experiment: microbe, parasite or virus in culture; assay type: cell-based, Leishmania amazonensis; details: read-out: IC50 Promastigote
Experimental: as §1

[3] = system: L. amazonensis amastigotes; experiment: microbe, parasite or virus in culture; assay type: cell-based, Leishmania amazonensis; details: read-out: IC50 Amastigote
Experimental: as §2

[4] = system: L. amazonensis promastigotes; details: read-out: IC50 Promastigote with active fetal bovine serum, LIT medium with active (not heat-inactivated) fetal bovine serum, ± standard deviation, SD
Experimental: Therefore, stability studies were carried out with these molecules in the presence of the Leishmania parasite in its promastigote form, with active fetal bovine serum added to the culture medium. […] Assays were performed using the TSHa and (TSHa)2K peptides.
Peptide stability was investigated using anti-promastigote assays (as described by Costa et al. 2023 [58]) with L. amazonensis and LIT culture media with fetal bovine serum.

[5] = POPC–POPS–Erg (16:3:1) LUVs
Experimental: To evaluate the effect of monomeric and dimeric peptides on the lipid membrane and relate it to the mechanism of action, vesicle permeabilization studies were carried out for evaluating the possible mechanisms on membrane. The leakage assays were carried out with carboxyfluorescein (CF) internalized in the mimetic membranes. The vesicles of POPC–Chol (4:1) and POPC–POPS (phosphatidylserine)–ergosterol (16:3:1) were employed. These mimetic membranes were designed considering the compositions of phospholipids and steroids in the host membrane and in the Leishmania membrane, respectively. The constitution of the cell membrane of Leishmania varies according to the morphology of the parasite and its stage of development, but is more negative than the cell membranes of mammals, which allow for cationic AMPs to bind more easily. Our studies were based on the membrane of the promastigote form, which is characterized by the presence of mainly phosphatidylcholine, phosphatidylethanolamine, phosphatidylinositol, phosphatidylserine, and ergosterol, in addition to diglycerides and glycolipids containing mannose and galactose. In the amastigote form of Leishmania, there is a higher concentration of fatty acids and cholesterol, while triglycerides and ergosterol decrease during the transition from promastigotes to amastigotes. In addition, the main phospholipids found are sphingomyelin and phosphatidylserine, with lower proportions of phosphatidylinositol and lysophosphatidylethanolamine.
Large unilamellar vesicles (LUVs) composed of POPC (1-palmitoyl-2-oleoyl-sn-glycero-3-phosphatidylcholine) and cholesterol (Chol) (4:1), or POPC, POPS (1-palmitoyl-2-oleoyl-sn-glycero-3-serine), and ergosterol (Erg) (16:3:1) were prepared according to the methods described by Lorenzón et al.. […] We employed a Hitachi U-2000 spectrophotometer (TSHa) (Hitachi, Tokyo, Japan) or a Fluorolog-3 FL3-122 spectrofluorometer (Horiba Jobin Yvon, Glasgow, UK) ((TSHa)2K) for analyses.

LmCPB2.8ΔCTE (CPB) = LmCPB2.8ΔCTE (CPB) (Leishmania mexicana, UniProt P36400); experiment: Cysteine protease (CPB) enzyme inhibition assay; assay type: biochemical
Sequence of LmCPB2.8ΔCTE (CPB) (P36400 126-343, stated change not applied): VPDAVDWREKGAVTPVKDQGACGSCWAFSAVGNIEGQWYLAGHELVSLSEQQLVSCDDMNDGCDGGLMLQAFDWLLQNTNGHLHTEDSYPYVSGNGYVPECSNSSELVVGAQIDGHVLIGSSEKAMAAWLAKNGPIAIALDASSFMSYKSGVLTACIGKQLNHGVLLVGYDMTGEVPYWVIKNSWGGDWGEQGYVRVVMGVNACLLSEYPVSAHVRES
Experimental: The CPB inhibition experiments were performed as described previously by Moreira et al.. The results are expressed as mean ± standard deviation of two independent replicates as the half maximal CPB enzyme inhibitory concentration (IC50-CPB) using Bioestat 5.0 software.

## FLSGIVGMLGKLF-NH2 [TSHa]
[1]
  IC50: 6.3 ± 0.85 µM
L. mexicana amastigotes; 24 h of treatment, read-out: IC50 Amastigote 24 h of Treatment
  IC50: 5 ± 0.05 µM
L. mexicana amastigotes; 48 h of treatment, read-out: IC50 Amastigote 48 h of Treatment
  IC50: 8.1 ± 0.45 µM
Peritoneal macrophages; Table 1, ± standard deviation, SD
  CC50 Peritoneal Macrophages: >1000 ± 0.01 µM
Peritoneal macrophages; Table 2
  CC50 Peritoneal Macrophage: >1000 ± 1.8 µM
[2]
  IC50: 8 ± 0.1 µM
[3]
  IC50: 6.8 ± 2.82 µM
[4]
  IC50: 20 ± 2.15 µM
[5]; peptide 1 µmol L^−1, fluorescence
  CF release: around 70%
[5]; peptide 5 µmol L^−1, fluorescence
  CF release: ~85%
LmCPB2.8ΔCTE (CPB); 20 μmol L^−1, mean ± SD of two independent replicates, SD
  Inhibitory Activity at 20 μmol L^−1: 94.22 ± 1.54 %
LmCPB2.8ΔCTE (CPB); 20 μmol L^−1, mean ± SD of two independent replicates, read-out: Inhibitory Activity at 20 μmol L^−1
  inhibition at 20 µM: > 90%
LmCPB2.8ΔCTE (CPB); mean ± SD of two independent replicates, SD
  IC50: 9.2 ± 2.2 µM
